Measurements published in article PMC7766161, “PARP Theranostic Auger Emitters Are Cytotoxic in BRCA Mutant Ovarian Cancer and Viable Tumors from Ovarian Cancer Patients Enable Ex-Vivo Screening of Tumor Response” (Molecules, 2020).

Biological target: T1, PARP-1 (Homo sapiens, UniProt P09874)
T1 construct: gene PARP1
Assay: saturation radioligand binding in OVCAR8 wt cells (nonspecific binding with […] veliparib)
Format: cell-based

T1 sequence (P09874 2-1014): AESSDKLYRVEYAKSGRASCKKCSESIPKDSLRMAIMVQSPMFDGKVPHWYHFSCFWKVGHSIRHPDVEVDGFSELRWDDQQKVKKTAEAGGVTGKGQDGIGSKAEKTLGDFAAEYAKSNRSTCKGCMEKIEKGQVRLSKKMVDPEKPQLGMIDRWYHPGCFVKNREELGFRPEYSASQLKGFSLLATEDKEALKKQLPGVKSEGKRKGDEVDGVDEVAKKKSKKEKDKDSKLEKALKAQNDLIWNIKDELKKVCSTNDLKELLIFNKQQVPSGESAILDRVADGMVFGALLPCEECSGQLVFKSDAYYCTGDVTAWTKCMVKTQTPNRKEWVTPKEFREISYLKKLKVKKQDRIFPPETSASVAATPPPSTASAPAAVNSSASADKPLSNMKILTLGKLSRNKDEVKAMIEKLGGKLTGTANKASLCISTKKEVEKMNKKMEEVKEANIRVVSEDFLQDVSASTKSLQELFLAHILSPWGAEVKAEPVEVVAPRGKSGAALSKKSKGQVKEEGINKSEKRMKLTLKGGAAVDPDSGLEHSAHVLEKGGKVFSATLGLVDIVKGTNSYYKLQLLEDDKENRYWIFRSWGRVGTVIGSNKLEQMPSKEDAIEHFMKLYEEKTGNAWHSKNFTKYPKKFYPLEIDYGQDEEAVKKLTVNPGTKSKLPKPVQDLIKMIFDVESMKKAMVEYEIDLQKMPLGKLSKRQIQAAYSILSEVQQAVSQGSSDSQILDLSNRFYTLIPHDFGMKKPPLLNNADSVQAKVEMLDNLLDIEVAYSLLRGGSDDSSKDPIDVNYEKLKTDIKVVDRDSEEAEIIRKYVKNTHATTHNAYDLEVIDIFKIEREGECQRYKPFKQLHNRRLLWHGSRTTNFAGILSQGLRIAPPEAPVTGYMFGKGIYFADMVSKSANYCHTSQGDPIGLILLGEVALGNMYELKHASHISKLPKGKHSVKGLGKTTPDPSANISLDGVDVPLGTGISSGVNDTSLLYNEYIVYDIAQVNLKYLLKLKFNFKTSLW

[125I]KX1
Kd: 7.7 nM
